Results taken from the NIST ThermoML archive (doi:10.1021/je300632p).
Numbers after ± are expanded uncertainties.

Assay: xn = mol fraction of the nth substance listed
Conditions: 101 kPa, Liquid; for viscosity: Falling or rolling sphere viscometry; for mass density: Vibrating tube method

## CCCO [propan-1-ol] + CCO
293.15 K, x2 = 0
  viscosity: 2.195 ± 0.018 mPa·s
  mass density: 803.58 ± 0.13 kg/m3
293.15 K, x2 = 0.1
  viscosity: 2.034 ± 0.017 mPa·s
  mass density: 802.08 ± 0.13 kg/m3
293.15 K, x2 = 0.2
  viscosity: 1.92 ± 0.016 mPa·s
  mass density: 800.86 ± 0.13 kg/m3
293.15 K, x2 = 0.301
  viscosity: 1.825 ± 0.015 mPa·s
  mass density: 799.68 ± 0.12 kg/m3
293.15 K, x2 = 0.4
  viscosity: 1.684 ± 0.015 mPa·s
  mass density: 798.4 ± 0.12 kg/m3
293.15 K, x2 = 0.5
  viscosity: 1.586 ± 0.014 mPa·s
  mass density: 797.31 ± 0.12 kg/m3
293.15 K, x2 = 0.599
  viscosity: 1.505 ± 0.014 mPa·s
  mass density: 795.87 ± 0.12 kg/m3
293.15 K, x2 = 0.701
  viscosity: 1.408 ± 0.013 mPa·s
  mass density: 794.36 ± 0.12 kg/m3
293.15 K, x2 = 0.8
  viscosity: 1.324 ± 0.012 mPa·s
  mass density: 792.88 ± 0.12 kg/m3
293.15 K, x2 = 0.9
  viscosity: 1.242 ± 0.012 mPa·s
  mass density: 791.44 ± 0.12 kg/m3
298.15 K, x2 = 0
  viscosity: 1.902 ± 0.016 mPa·s
  mass density: 799.59 ± 0.13 kg/m3
298.15 K, x2 = 0.1
  viscosity: 1.81 ± 0.015 mPa·s
  mass density: 798.08 ± 0.13 kg/m3
298.15 K, x2 = 0.2
  viscosity: 1.713 ± 0.015 mPa·s
  mass density: 796.82 ± 0.13 kg/m3
298.15 K, x2 = 0.301
  viscosity: 1.632 ± 0.014 mPa·s
  mass density: 795.65 ± 0.13 kg/m3
298.15 K, x2 = 0.4
  viscosity: 1.511 ± 0.014 mPa·s
  mass density: 794.33 ± 0.13 kg/m3
298.15 K, x2 = 0.5
  viscosity: 1.425 ± 0.013 mPa·s
  mass density: 793.22 ± 0.13 kg/m3
298.15 K, x2 = 0.599
  viscosity: 1.355 ± 0.013 mPa·s
  mass density: 791.75 ± 0.13 kg/m3
298.15 K, x2 = 0.701
  viscosity: 1.272 ± 0.012 mPa·s
  mass density: 790.21 ± 0.13 kg/m3
298.15 K, x2 = 0.8
  viscosity: 1.198 ± 0.012 mPa·s
  mass density: 788.69 ± 0.13 kg/m3
298.15 K, x2 = 0.9
  viscosity: 1.127 ± 0.011 mPa·s
  mass density: 787.22 ± 0.13 kg/m3
303.15 K, x2 = 0
  viscosity: 1.694 ± 0.015 mPa·s
  mass density: 795.58 ± 0.13 kg/m3
303.15 K, x2 = 0.1
  viscosity: 1.615 ± 0.014 mPa·s
  mass density: 794.05 ± 0.13 kg/m3
303.15 K, x2 = 0.2
  viscosity: 1.533 ± 0.014 mPa·s
  mass density: 792.77 ± 0.13 kg/m3
303.15 K, x2 = 0.301
  viscosity: 1.464 ± 0.013 mPa·s
  mass density: 791.57 ± 0.13 kg/m3
303.15 K, x2 = 0.4
  viscosity: 1.359 ± 0.013 mPa·s
  mass density: 790.22 ± 0.13 kg/m3
303.15 K, x2 = 0.5
  viscosity: 1.284 ± 0.012 mPa·s
  mass density: 789.08 ± 0.13 kg/m3
303.15 K, x2 = 0.599
  viscosity: 1.225 ± 0.012 mPa·s
  mass density: 787.59 ± 0.13 kg/m3
303.15 K, x2 = 0.701
  viscosity: 1.152 ± 0.012 mPa·s
  mass density: 786.02 ± 0.13 kg/m3
303.15 K, x2 = 0.8
  viscosity: 1.088 ± 0.011 mPa·s
  mass density: 784.47 ± 0.13 kg/m3
303.15 K, x2 = 0.9
  viscosity: 1.024 ± 0.011 mPa·s
  mass density: 782.96 ± 0.13 kg/m3
308.15 K, x2 = 0
  viscosity: 1.511 ± 0.014 mPa·s
  mass density: 791.53 ± 0.13 kg/m3
308.15 K, x2 = 0.1
  viscosity: 1.446 ± 0.013 mPa·s
  mass density: 789.98 ± 0.13 kg/m3
308.15 K, x2 = 0.2
  viscosity: 1.376 ± 0.013 mPa·s
  mass density: 788.8 ± 0.13 kg/m3
308.15 K, x2 = 0.301
  viscosity: 1.317 ± 0.012 mPa·s
  mass density: 787.45 ± 0.13 kg/m3
308.15 K, x2 = 0.4
  viscosity: 1.225 ± 0.012 mPa·s
  mass density: 786.08 ± 0.13 kg/m3
308.15 K, x2 = 0.5
  viscosity: 1.16 ± 0.012 mPa·s
  mass density: 784.92 ± 0.13 kg/m3
308.15 K, x2 = 0.599
  viscosity: 1.11 ± 0.011 mPa·s
  mass density: 783.4 ± 0.13 kg/m3
308.15 K, x2 = 0.701
  viscosity: 1.046 ± 0.011 mPa·s
  mass density: 781.8 ± 0.13 kg/m3
308.15 K, x2 = 0.8
  viscosity: 0.989 ± 0.011 mPa·s
  mass density: 780.21 ± 0.13 kg/m3
308.15 K, x2 = 0.9
  viscosity: 0.933 ± 0.01 mPa·s
  mass density: 778.67 ± 0.13 kg/m3
313.15 K, x2 = 0
  viscosity: 1.352 ± 0.013 mPa·s
  mass density: 787.44 ± 0.13 kg/m3
313.15 K, x2 = 0.1
  viscosity: 1.297 ± 0.012 mPa·s
  mass density: 785.86 ± 0.13 kg/m3
313.15 K, x2 = 0.2
  viscosity: 1.239 ± 0.012 mPa·s
  mass density: 784.66 ± 0.13 kg/m3
313.15 K, x2 = 0.301
  viscosity: 1.188 ± 0.012 mPa·s
  mass density: 783.29 ± 0.13 kg/m3
313.15 K, x2 = 0.4
  viscosity: 1.107 ± 0.011 mPa·s
  mass density: 781.9 ± 0.13 kg/m3
313.15 K, x2 = 0.5
  viscosity: 1.051 ± 0.011 mPa·s
  mass density: 780.71 ± 0.13 kg/m3
313.15 K, x2 = 0.599
  viscosity: 1.007 ± 0.011 mPa·s
  mass density: 779.16 ± 0.13 kg/m3
313.15 K, x2 = 0.701
  viscosity: 0.952 ± 0.011 mPa·s
  mass density: 777.53 ± 0.13 kg/m3
313.15 K, x2 = 0.8
  viscosity: 0.901 ± 0.01 mPa·s
  mass density: 775.91 ± 0.13 kg/m3
313.15 K, x2 = 0.9
  viscosity: 0.852 ± 0.01 mPa·s
  mass density: 774.33 ± 0.13 kg/m3
318.15 K, x2 = 0
  viscosity: 1.214 ± 0.012 mPa·s
  mass density: 783.3 ± 0.13 kg/m3
318.15 K, x2 = 0.1
  viscosity: 1.167 ± 0.012 mPa·s
  mass density: 781.7 ± 0.13 kg/m3
318.15 K, x2 = 0.2
  viscosity: 1.118 ± 0.011 mPa·s
  mass density: 780.48 ± 0.13 kg/m3
318.15 K, x2 = 0.301
  viscosity: 1.074 ± 0.011 mPa·s
  mass density: 779.09 ± 0.13 kg/m3
318.15 K, x2 = 0.4
  viscosity: 1.003 ± 0.011 mPa·s
  mass density: 777.68 ± 0.13 kg/m3
318.15 K, x2 = 0.5
  viscosity: 0.954 ± 0.011 mPa·s
  mass density: 776.45 ± 0.13 kg/m3
318.15 K, x2 = 0.599
  viscosity: 0.916 ± 0.01 mPa·s
  mass density: 774.88 ± 0.13 kg/m3
318.15 K, x2 = 0.701
  viscosity: 0.867 ± 0.01 mPa·s
  mass density: 773.22 ± 0.13 kg/m3
318.15 K, x2 = 0.8
  viscosity: 0.823 ± 0.01 mPa·s
  mass density: 771.56 ± 0.13 kg/m3
318.15 K, x2 = 0.9
  viscosity: 0.78 ± 0.01 mPa·s
  mass density: 769.95 ± 0.13 kg/m3
323.15 K, x2 = 0
  viscosity: 1.093 ± 0.011 mPa·s
  mass density: 779.11 ± 0.13 kg/m3
323.15 K, x2 = 0.1
  viscosity: 1.053 ± 0.011 mPa·s
  mass density: 777.49 ± 0.13 kg/m3
323.15 K, x2 = 0.2
  viscosity: 1.012 ± 0.011 mPa·s
  mass density: 776.24 ± 0.13 kg/m3
323.15 K, x2 = 0.301
  viscosity: 0.973 ± 0.011 mPa·s
  mass density: 774.83 ± 0.13 kg/m3
323.15 K, x2 = 0.4
  viscosity: 0.911 ± 0.01 mPa·s
  mass density: 773.39 ± 0.13 kg/m3
323.15 K, x2 = 0.5
  viscosity: 0.867 ± 0.01 mPa·s
  mass density: 772.14 ± 0.13 kg/m3
323.15 K, x2 = 0.599
  viscosity: 0.835 ± 0.01 mPa·s
  mass density: 770.54 ± 0.13 kg/m3
323.15 K, x2 = 0.701
  viscosity: 0.792 ± 0.01 mPa·s
  mass density: 768.85 ± 0.13 kg/m3
323.15 K, x2 = 0.8
  viscosity: 0.753 ± 0.01 mPa·s
  mass density: 767.16 ± 0.13 kg/m3
323.15 K, x2 = 0.9
  viscosity: 0.715 ± 0.01 mPa·s
  mass density: 765.52 ± 0.13 kg/m3
328.15 K, x2 = 0
  viscosity: 0.986 ± 0.011 mPa·s
  mass density: 774.86 ± 0.13 kg/m3
328.15 K, x2 = 0.1
  viscosity: 0.953 ± 0.011 mPa·s
  mass density: 773.22 ± 0.13 kg/m3
328.15 K, x2 = 0.2
  viscosity: 0.919 ± 0.01 mPa·s
  mass density: 771.95 ± 0.13 kg/m3
328.15 K, x2 = 0.301
  viscosity: 0.884 ± 0.01 mPa·s
  mass density: 770.52 ± 0.13 kg/m3
328.15 K, x2 = 0.4
  viscosity: 0.829 ± 0.01 mPa·s
  mass density: 769.06 ± 0.13 kg/m3
328.15 K, x2 = 0.5
  viscosity: 0.79 ± 0.01 mPa·s
  mass density: 767.78 ± 0.13 kg/m3
328.15 K, x2 = 0.599
  viscosity: 0.763 ± 0.01 mPa·s
  mass density: 766.15 ± 0.13 kg/m3
328.15 K, x2 = 0.701
  viscosity: 0.725 ± 0.01 mPa·s
  mass density: 764.43 ± 0.13 kg/m3
328.15 K, x2 = 0.8
  viscosity: 0.69 ± 0.009 mPa·s
  mass density: 762.71 ± 0.13 kg/m3
328.15 K, x2 = 0.9
  viscosity: 0.657 ± 0.009 mPa·s
  mass density: 761.02 ± 0.13 kg/m3
